Measured values reported in patent US12414952B2 (Merck Sharp & Dohme LLC, priority 2018, dated 2025).

How the values were obtained:
[1] = target: T1, human A2a adenosine receptor (Homo sapiens (Human), UniProt P29274); experiment: A2a binding affinity using SPA, Method (B); details: Method (B): [3H]SCH58261 SPA
Text: (§1) The A2a receptor affinity binding assay measured the amount of binding of a tritiated ligand with high affinity for the A2a adenosine receptor to membranes made from HEK293 or CHO cells recombinantly expressing the human A2a adenosine receptor, in the presence of varying concentrations of a compound of the invention. The data were generated using either filtration binding or a homogenous scintillation proximity assay (SPA).
Method (B): Measurement of A2a Binding Affinity Using SPA
Binding affinity using SPA was conducted as follows. Test compounds (50 nL) were dispensed into individual wells of a 384-well OptiPlate™ well (Perkin Elmer) by Echo® acoustic liquid transfer (Labcyte). 20 μL of 1.25 nM [^3H] SCH58261 ((7-(2-phenylethyl)-5-amino-2-(2-furyl)-pyrazolo-[4,3-e]-1,2,4-triazolo[1,5-c]pyrimidine)) in DPBS assay buffer (Dulbecco's phosphate buffered saline without calcium and magnesium, ThermoFisher Scientific, Cat. No. A1285601) supplemented with 10 mM MgCl2 was added. A2a receptor-expressing membranes were incubated with 20 μg/mL adenosine deaminase (Roche, Cat. No. 10 102 105 001) for 15 min at room temperature. The receptor-expressing membranes were then combined with wheat germ agglutinin-coated yttrium silicate SPA beads (GE Healthcare, Cat. No. RPNQ0023) in a ratio of 1:1000 (w/w) and incubated for 30 min at room temperature. 30 μL of the membrane/bead mixture (0.25 μg and 25 μg per well respectively) were added to the 384-well OptiPlate™ well. To define total and non-specific binding, wells containing 1% DMSO or 1 μM CGS15943 (Tocris Bioscience, Cat. No. 1699) respectively were also included in the experiment. The plate was incubated for one h at room temperature with agitation. The assay plate was then incubated for an h to allow the beads to settle before data were collected using a TopCount® (Perkin Elmer) scintillation counter. After normalization to total and non-specific binding, the percent effect at each compound concentration was calculated. The plot of percent effect versus the log of compound concentration was analyzed electronically using a 4-parameter logistic fit based on the Levenberg-Marquardt algorithm to generate IC50 values.

[2] = target: T1, human A2a adenosine receptor; experiment: A2a binding affinity using an alternative radioligand binding assay, Method (C); details: Method (C): [3H]CGS21680, CHO.A2a membranes
Text: as §1
Method (C): Measurement of A2a Binding Affinity Using an Alternative Radioligand Binding Assay
Membranes used in this procedure were made by washing cell cultures twice with DPBS buffer (Dulbecco's phosphate buffered saline without calcium and magnesium, ThermoFisher Scientific, Cat. No. A1285601), and harvesting the cell cultures by mechanical scraping. The cells were collected by centrifugation and re-suspended in 10 mM HEPES, pH 7.4 containing 0.1 mM benzamidine (Sigma, Cat. No. B6506) and 0.1 mM PMSF (phenylmethylsulfonyl fluoride, Sigma, Cat. No. 10837091001). Cells were freeze-thawed twice in a dry ice/ethanol bath and homogenized with 25 to 30 strokes in a glass dounce homogenizer (Wheaton, Cat. No. 357546). Membranes were pelleted at 40,000×g for 20 min at 4° C. and re-suspended in assay buffer (5 mM HEPES, pH 7.4, 5 mM MgCl2; supplemented with 0.1 mM benzamidine) at a protein concentration of 2.6 mg/mL. Protein concentration was determined by the Bio-Rad method (Bio-Rad, Cat. No. 5000002). Membranes were then incubated with adenosine deaminase (final concentration 2U/mL) for 20 min at 37° C. before use in the binding assay.
To perform the binding assay, 50 μg CHO.A2a membranes, 5 nM [^3H]CGS21680 (Perkin Elmer, Cat. No. NET1021), and 1 μL of test compound were combined in individual tubes to a volume of 100 μL. To define total and non-specific binding, wells containing 1% DMSO and 20 μM N-ethylcarboxamidoadenosine (Tocris Bioscience, Cat. No. 1691) respectively, were also included. The samples were incubated for 2 h at 37° C. The samples were filtered rapidly through a glass fiber filter using a cell harvester and washed with cold buffer (10 mM Tris, pH7.4, 5 mM MgCl2). The filter was allowed to dry and individual filters were placed into vials together with liquid scintillant and subjected to scintillation counting. After normalization to total and non-specific binding, the percent effect at each compound concentration was calculated. The plot of percent effect versus the log of compound concentration was analyzed electronically using a 4-parameter logistic fit based on the Levenberg-Marquardt algorithm to generate IC50 values.

[3] = target: human A2b adenosine receptor (Homo sapiens (Human), UniProt P29275); experiment: A2b binding affinity, radioligand filtration binding assay; details: tritiated proprietary A2b antagonist, HEK293 membranes
In short: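 Membranes from HEK293 cells recombinantly expressing human A2b were incubated with a tritiated proprietary A2b antagonist, with and without compound. Filter-bound radioactivity was counted by scintillation. Percent effect was normalized to total and non-specific binding, and IC50 came from a 4-parameter logistic fit.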

[4] = target: T1, human A2a adenosine receptor; experiment: A2a binding affinity using radioligand binding, Method (A); details: Method (A): [3H]SCH58261 filtration binding
In short: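 Membranes from HEK293 or CHO cells expressing human A2a were preincubated with compound for 15–30 min at room temperature. [3H]SCH58261 was then added (4 nM working dilution) in 50 mM Tris pH 7.4, 10 mM MgCl2, 0.005% Tween20 for 60 min at room temperature. Bound radioactivity after filtration was normalised to total and non-specific binding, and IC50 came from 4-parameter logistic fits.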

[5] = target: T1, human A2a adenosine receptor; experiment: A2a receptor affinity binding assay, method not indicated; details: method letter not given
Text: Method (A) describes the procedure used to measure A2a binding affinity using radioligand binding. Method (B) describes the procedure used to measure A2a binding affinity using SPA technology. Method (C) describes an alternative procedure used to measure A2a binding affinity using radioligand binding. The method used to measure A2b binding affinity is also described below. The method used to determine the A2a IC50 value reported for each compound in the table is indicated next to the reported value. The A2b IC50 value measured using the A2b binding affinity assay is shown in the table next to the compound under the corresponding A2a value.
as §1

human A2b adenosine receptor, sequence (P29275 whole entry): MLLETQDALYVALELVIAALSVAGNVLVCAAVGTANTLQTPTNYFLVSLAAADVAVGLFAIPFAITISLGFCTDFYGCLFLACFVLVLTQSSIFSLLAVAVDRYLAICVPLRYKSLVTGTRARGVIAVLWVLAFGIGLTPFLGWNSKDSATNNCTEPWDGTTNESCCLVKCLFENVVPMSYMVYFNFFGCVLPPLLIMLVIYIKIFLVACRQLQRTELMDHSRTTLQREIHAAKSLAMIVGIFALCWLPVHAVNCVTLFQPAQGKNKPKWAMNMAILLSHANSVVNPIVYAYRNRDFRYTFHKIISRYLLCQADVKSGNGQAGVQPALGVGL
T1 sequence (P29274 whole entry): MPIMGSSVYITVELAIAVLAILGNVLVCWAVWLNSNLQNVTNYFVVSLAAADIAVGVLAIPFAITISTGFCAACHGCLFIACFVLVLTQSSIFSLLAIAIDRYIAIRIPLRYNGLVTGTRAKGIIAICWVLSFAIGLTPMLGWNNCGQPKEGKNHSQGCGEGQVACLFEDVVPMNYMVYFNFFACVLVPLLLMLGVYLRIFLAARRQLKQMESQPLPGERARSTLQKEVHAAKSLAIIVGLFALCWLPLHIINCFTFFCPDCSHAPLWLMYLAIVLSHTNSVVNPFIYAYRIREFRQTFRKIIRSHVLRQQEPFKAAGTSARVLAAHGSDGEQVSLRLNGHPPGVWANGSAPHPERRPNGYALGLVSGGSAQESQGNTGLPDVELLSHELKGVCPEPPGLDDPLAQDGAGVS

Compound | IC50 [1] [nM] | IC50 [2] [nM] | IC50 [3] [nM] | IC50 [4] [nM] | other results
Cc1nc2c(s1)CN(CCc1nc3c(C)c(-c4ncco4)nc(N)n3n1)CC2 [Example 1.8] | 2.4 |  |  |  | 
Cc1nc2c(s1)CN(CCc1nc3c(C)c(-c4cnco4)nc(N)n3n1)CC2 [Example 2.26] | 6.6 |  |  |  | 
Cc1c(-c2ncco2)nc(N)n2nc(Cc3cc[nH]n3)nc12 [Example 7.5, 2-((1H-pyrazol-3-yl)methyl)-8-methyl-7-(oxazol-2-yl)-[1,2,4]triazolo[1,5-c]pyrimidin-5-amine] | 4.7 |  |  |  | 
Cc1c(-c2ncco2)nc(N)n2nc(Cc3ccccn3)nc12 [Example 9.6, 8-methyl-7-(oxazol-2-yl)-2-(pyridin-2-ylmethyl)-[1,2,4]triazolo[1,5-c]pyrimidin-5-amine] | 0.7 |  |  |  | 
Cc1cccc(Cc2nc3c(C)c(-c4ncco4)nc(N)n3n2)n1 [Example 9.7, 8-methyl-2-((6-methylpyridin-2-yl)methyl)-7-(oxazol-2-yl)-[1,2,4]triazolo[1,5-c]pyrimidin-5-amine] | 0.5 |  |  |  | 
Cc1cccnc1Cc1nc2c(C)c(-c3ncco3)nc(N)n2n1 [Example 9.8, 8-methyl-2-((3-methylpyridin-2-yl)methyl)-7-(oxazol-2-yl)-[1,2,4]triazolo[1,5-c]pyrimidin-5-amine] | 0.6 |  |  |  | 
Cc1c(-c2ncco2)nc(N)n2nc(CCN3CCc4c(nnn4C4CCCC4)C3)nc12 [Example 17.13, 2-(2-(1-cyclopentyl-1,4,6,7-tetrahydro-5H-[1,2,3]triazolo[4,5-c]pyridin-5-yl)ethyl)-8-methyl-7-(oxazol-2-yl)-[1,2,4]triazolo[1,5-c]pyrimidin-5-amine] |  |  | 8.1 | 0.7 | 
Cc1c(-c2ncco2)nc(N)n2nc(CCN3CCc4c(nnn4C4CC(F)(F)C4)C3)nc12 [Example 17.14, 2-(2-(1-(3,3-difluorocyclobutyl)-1,4,6,7-tetrahydro-5H-[1,2,3]triazolo[4,5-c]pyridin-5-yl)ethyl)-8-methyl-7-(oxazol-2-yl)-[1,2,4]triazolo[1,5-c]pyrimidin-5-amine] |  |  | 41.7 | 0.5 | 
Cc1c(-c2ncco2)nc(N)n2nc(CCN3CCc4c(nnn4C45CC(C4)C5)C3)nc12 [Example 17.15, 2-(2-(1-(bicyclo[1.1.1]pentan-1-yl)-1,4,6,7-tetrahydro-5H-[1,2,3]triazolo[4,5-c]pyridin-5-yl)ethyl)-8-methyl-7-(oxazol-2-yl)-[1,2,4]triazolo[1,5-c]pyrimidin-5-amine] |  |  | 32 | 2.2 | 
CCOC(=O)c1cnn(CCc2nc3c(C)c(-c4ncco4)nc(N)n3n2)c1 [Example 17.17, ethyl 1-(2-(5-amino-8-methyl-7-(oxazol-2-yl)-[1,2,4]triazolo[1,5-c]pyrimidin-2-yl)ethyl)-1H-pyrazole-4-carboxylate] |  |  | 9670 | 34.9 | 
Cc1c(-c2ccc(F)cc2)nc(N)c2nc(CCN3CCn4c(cnc4C(C)C)C3)nn12 [Example 18.6, 6-(4-fluorophenyl)-2-(2-(3-isopropyl-5,6-dihydroimidazo[1,5-a]pyrazin-7(8H)-yl)ethyl)-5-methyl-[1,2,4] triazolo[1,5-a]pyrazin-8-amine] |  |  |  |  | IC50 [5]: 346 nM

Now from value to compound, other results behind:

IC50 [1] [nM] | IC50 [2] [nM] | IC50 [3] [nM] | IC50 [4] [nM] | Compound | other results
 | 668 |  |  | COc1ccccc1-c1cc2nc(CCN3CC(F)(F)C3)nn2c(N)n1 [Example 2.18] | 
 | 389 |  |  | COc1cccc(-c2cc3nc(CCN4CC(F)(F)C4)nn3c(N)n2)c1 [Example 2.19] | 
 | 241 |  |  | Nc1nc(-c2ccccc2F)cc2nc(CCN3CC(F)(F)C3)nn12 [Example 2.20] | 
 | 91.7 |  |  | Nc1nc(-c2cccc(F)c2)cc2nc(CCN3CC(F)(F)C3)nn12 [Example 2.21] | 
 | 275 |  |  | Nc1nc(-c2ccc(F)cc2)cc2nc(CCN3CC(F)(F)C3)nn12 [Example 2.22] | 
 | 150 |  |  | Nc1nc(-c2ccccc2)cc2nc(CCN3CC(F)(F)C3)nn12 [Example 2.23] | 
 |  | 1100 | 1.2 | Cc1c(-c2ncco2)nc(N)n2nc(CCN3CCCC(F)(F)C3)nc12 [Example 17.16, 2-(2-(3,3-difluoropiperidin-1-yl)ethyl)-8-methyl-7-(oxazol-2-yl)-[1,2,4]triazolo[1,5-c]pyrimidin-5-amine] | 
 |  | 117 | 13.5 | Nc1nc(-c2cc(F)ccc2F)c(C2CC2)n2nc(Cc3ccccc3)nc12 [Example 20.5, 2-benzyl-5-cyclopropyl-6-(2,5-difluorophenyl)-[1,2,4]triazolo[1,5-a]pyrazin-8-amine] | 
 |  | 52.8 | 0.9 | CC(C)n1nnc2c1CCN(CCc1nc3c(C(F)(F)F)c(-c4cccc(F)c4)nc(N)n3n1)C2 [Example 23.7, 7-(3-fluorophenyl)-2-(2-(1-isopropyl-1,4,6,7-tetrahydro-5H-[1,2,3]triazolo[4,5-c]pyridin-5-yl)ethyl)-8-(trifluoromethyl)-[1,2,4]triazolo[1,5-c]pyrimidin-5-amine] | 
